Values of other authors in US7851464B2, “Spirolactam aryl CGRP receptor antagonists” (Merck Sharp & Dohme Corp., priority 2005, dated 2010).
Ends that are not written are not given here.

Key:
marmoset = settings: Doods et al. 2000
rats = settings: prior administration, Williamson et al. 1997
rat = settings: Escott et al. 1995

Compound	effect on increase of facial blood flow (marmoset)	effect on increase of middle meningeal artery diameter (rats)	effect on increase of facial blood flow (rat)
NCCCC[C@H](NC(=O)[C@@H](Cc1cc(Br)c(O)c(Br)c1)NC(=O)N1CCC(N2Cc3ccccc3NC2=O)CC1)C(=O)N1CCN(c2ccncc2)CC1 [BIBN4096BS]	blocked	–	–
CGRP(8-37): a peptide CGRP antagonist; fragment of CGRP that lacks seven N-terminal amino acid residues (VTHRLAGLLSRSGGVVKNNFVPTNVGSKAF; ends and bridges not checked; UniProt P06881 90-119, looked up, fragment)	–	blocked	inhibited
